Test results from patent US20180327355A1, “ISOINDOLINE DERIVATIVES” (priority 2015, published 2018).
Read-outs that look alike come from different tables or passages of the source.

Tested on: HIV
Experiment: MT4 assay (anti-HIV activity)
Assay type: cell-based
Method: Antiviral HIV activity and cytotoxicity values for compounds of the invention from Table 1 were measured in parallel in the HTLV-1 transformed cell line MT-4 based on the method previously described (Hazen et al., 2007, In vitro antiviral activity of the novel, tyrosyl-based human immunodeficiency virus (HIV) type 1 protease inhibitor brecanavir (GW640385) in combination with other antiretrovirals and against a panel of protease inhibitor-resistant HIV (Hazen et al., “In vitro antiviral activity of the novel, tyrosyl-based human immunodeficiency virus (HIV) type 1 protease inhibitor brecanavir (GW640385) in combination with other antiretrovirals and against a panel of protease inhibitor-resistant HIV”, Antimicrob. Agents Chemother. 2007, 51: 3147-3154; and Pauwels et al., “Sensitive and rapid assay on MT-4 cells for the detection of antiviral compounds against the AIDS virus”, J. of Virological Methods 1987, 16: 171-185).
Luciferase activity was measured 96 hours later by adding a cell titer glo (Promega, Madison, Wis.). Percent inhibition of cell protection data was plotted relative to no compound control. Under the same condition, cytotoxicity of the compounds was determined using cell titer Glo™ (Promega, Madison, Wis). ICsos were determined from a 10 point dose response curve using 3-4-fold serial dilution for each compound, which spans a concentration range >1000 fold.
These values are plotted against the molar compound concentrations using the standard four parameter logistic equation:
y=((Vmax*x̂n)/(K̂n+x̂n))+Y2
Y2=minimum y n=slope factor
Vmax=maximum y x=compound concentration [M]

[1] = MT4 assay, HTLV-1 transformed cell line MT-4, readout 96 hours, cell titer glo, read-out: IC50

Row | SMILES | IC50 [1] | IC50 (96 h)
1 | Cc1c(/C=C/C2CCCCC2)c([C@H](OC(C)(C)C)C(=O)O)c(C)c2c1CN(C(=O)c1cccc(F)c1)C2 [Example 14, (S,E)-2-(tert-butoxy)-2-(6-(2-cyclohexylvinyl)-2-(3-fluorobenzoyl)-4,7-dimethylisoindolin-5-yl)acetic acid] | 0.086 µM | 
2 | Cc1ccc(CCc2c(C)c3c(c(C)c2[C@H](OC(C)(C)C)C(=O)O)CN(C(=O)c2cccc(F)c2)C3)cc1 [Example 20, (S)-2-(tert-butoxy)-2-(2-(3-fluorobenzoyl)-4,7-dimethyl-6-(4-methylphenethyl)isoindolin-5-yl)acetic acid] | 50 µM | 
3 | Cc1c2c(c(C)c([C@H](OC(C)(C)C)C(=O)O)c1CCc1ccccc1)CN(C(=O)c1cccc(F)c1)C2 [Example 18, (S)-2-(tert-butoxy)-2-(2-(3-fluorobenzoyl)-4,7-dimethyl-6-phenethylisoindolin-5-yl)acetic acid] | 1.09 µM | 
4 | Cc1c2c(c(C)c([C@H](OC(C)(C)C)C(=O)O)c1Cc1ccccc1)CN(C(=O)c1cccc(F)c1)C2 [Example 3, (S)-2-(6-benzyl-2-(3-fluorobenzoyl)-4,7-dimethylisoindolin-5-yl)-2-(tert-butoxy)acetic acid] | 0.651 µM | 
5 | Cc1c2c(c(C)c([C@H](OC(C)(C)C)C(=O)O)c1CC(=O)NCC(C)(C)C)CN(C(=O)c1cccc(F)c1)C2 [Example 7, (S)-2-(tert-butoxy)-2-(2-(3-fluorobenzoyl)-4,7-dimethyl-6-(2-(neopentylamino)-2-oxoethyl)isoindolin-5-yl)acetic acid] | 38 µM | 
6 | Cc1c(C#Cc2ccccc2)c([C@H](OC(C)(C)C)C(=O)O)c(C)c2c1CN(C(=O)c1cccc(F)c1)C2 [Example 1, (S)-2-(tert-butoxy)-2-(2-(3-fluorobenzoyl)-4,7-dimethyl-6-(phenylethynyl)isoindolin-5-yl)acetic acid] | 1.03 µM | 
7 | Cc1c(/C=C/c2ccc3c(c2)CCCO3)c([C@H](OC(C)(C)C)C(=O)O)c(C)c2c1CN(C(=O)c1cccc(F)c1)C2 [Example 25, (S,E)-2-(tert-butoxy)-2-(6-(2-(chroman-6-yl)vinyl)-2-(3-fluorobenzoyl)-4,7-dimethylisoindolin-5-yl)acetic acid] | 33.9 µM | 
8 | Cc1c2c(c(C)c([C@H](OC(C)(C)C)C(=O)O)c1CC(=O)NC1CCCCC1)CN(C(=O)c1cccc(F)c1)C2 [Example 5, (S)-2-(tert-butoxy)-2-(6-(2-(cyclohexylamino)-2-oxoethyl)-2-(3-fluorobenzoyl)-4,7-dimethylisoindolin-5-yl)acetic acid] | 50 µM | 
9 | Cc1c2c(c(C)c([C@H](OC(C)(C)C)C(=O)O)c1CC(=O)N1CCCCC1)CN(C(=O)c1cccc(F)c1)C2 [Example 4, (S)-2-(tert-butoxy)-2-(2-(3-fluorobenzoyl)-4,7-dimethyl-6-(2-oxo-2-(piperidin-1-yl)ethyl)isoindolin-5-yl)acetic acid] | 10.2 µM | 
10 | Cc1c2c(c(C)c([C@H](OC(C)(C)C)C(=O)O)c1NC(=O)N1CCCCC1)CN(C(=O)c1cccc(F)c1)C2 [Example 11, (S)-2-(tert-butoxy)-2-(2-(3-fluorobenzoyl)-4,7-dimethyl-6-(piperidine-1-carboxamido)isoindolin-5-yl)acetic acid] | 3.12 µM | 
11 | Cc1c(/C=C/CC(C)(C)C)c([C@H](OC(C)(C)C)C(=O)O)c(C)c2c1CN(C(=O)c1cccc(F)c1)C2 [Example 16, (S,E)-2-(tert-butoxy)-2-(6-(4,4-dimethylpent-1-en-1-yl)-2-(3-fluorobenzoyl)-4,7-dimethylisoindolin-5-yl)acetic acid] | 0.12 µM | 
12 | Cc1c2c(c(C)c([C@H](OC(C)(C)C)C(=O)O)c1NC(=O)CC1CCCCC1)CN(C(=O)c1cccc(F)c1)C2 [Example 9, (S)-2-(tert-butoxy)-2-(6-(2-cyclohexylacetamido)-2-(3-fluorobenzoyl)-4,7-dimethylisoindolin-5-yl)acetic acid] | 50 µM | 
13 | Cc1c(/C=C/C2CCOCC2)c([C@H](OC(C)(C)C)C(=O)O)c(C)c2c1CN(C(=O)c1cccc(F)c1)C2 [Example 15, (S,E)-2-(tert-butoxy)-2-(2-(3-fluorobenzoyl)-4,7-dimethyl-6-(2-(tetrahydro-2H-pran-4-yl)vinyl)isoindolin-5-yl)acetic acid] | 1.31 µM | 
14 | Cc1c(/C=C\c2ccccc2)c([C@H](OC(C)(C)C)C(=O)O)c(C)c2c1CN(C(=O)c1cccc(F)c1)C2 [Example 27, (S,Z)-2-(tert-butoxy)-2-(2-(3-fluorobenzoyl)-4,7-dimethyl-6-styrylisoindolin-5-yl)acetic acid] | 0.868 µM | 
15 | Cc1ccc(C(=O)Nc2c(C)c3c(c(C)c2[C@H](OC(C)(C)C)C(=O)O)CN(C(=O)c2cccc(F)c2)C3)cc1 [Example 8, (S)-2-(tert-butoxy)-2-(2-(3-fluorobenzoyl)-4,7-dimethyl-6-(4-methylbenzamido)isoindolin-5-yl)acetic acid] | 50 µM | 
16 | C/C(=C(/C)c1c(C)c2c(c(C)c1[C@H](OC(C)(C)C)C(=O)O)CN(C(=O)c1cccc(F)c1)C2)c1ccccc1 [Example 23, (S,E)-2-(tert-butoxy)-2-(2-(3-fluorobenzoyl)-4,7-dimethyl-6-(3-phenylbut-2-en-2-yl)isoindolin-5-yl)acetic acid] |  | 0.044 µM
17 | Cc1c2c(c(C)c(N(C)C(=O)CC3CCCCC3)c1[C@H](OC(C)(C)C)C(=O)O)CN(C(=O)c1cccc(F)c1)C2 [Example 13, (S)-2-(tert-butoxy)-2-(6-(2-cyclohexyl-N-methylacetamido)-2-(3-fluorobenzoyl)-4,7-dimethylisoindolin-5-yl)acetic acid] | 44.6 µM | 
18 | C/C(=C\c1ccccc1)c1c(C)c2c(c(C)c1[C@H](OC(C)(C)C)C(=O)O)CN(C(=O)c1cccc(F)c1)C2 [Example 22, (S,E)-2-(tert-butoxy)-2-(2-(3-fluorobenzoyl)-4,7-dimethyl-6-(1-phenylprop-1-en-2-yl)isoindolin-5-yl)acetic acid] | 0.039 µM | 
19 | Cc1c(/C=C/c2cc(F)c3c(c2C)CCCO3)c([C@H](OC(C)(C)C)C(=O)O)c(C)c2c1CN(C(=O)c1cccc(F)c1)C2 [Example 26] | 50 µM | 
20 | C/C(=C\c1c(C)c2c(c(C)c1[C@H](OC(C)(C)C)C(=O)O)CN(C(=O)c1cccc(F)c1)C2)c1ccccc1 [Example 21, (S,E)-2-(tert-butoxy)-2-(2-(3-fluorobenzoyl)-4,7-dimethyl-6-(2-phenylprop-1-en-1-yl)isoindolin-5-yl)acetic acid] | 0.103 µM | 
21 | Cc1c2c(c(C)c([C@H](OC(C)(C)C)C(=O)O)c1NC(=O)c1ccccc1)CN(C(=O)c1cccc(F)c1)C2 [Example 10, (S)-2-(6-benzamido-2-(3-fluorobenzoyl)-4,7-dimethylisoindolin-5-yl)-2-(tert-butoxy)acetic acid] | 4.1 µM | 
22 | C/C(=C\c1cc(F)c2c(c1C)CCCO2)c1c(C)c2c(c(C)c1[C@H](OC(C)(C)C)C(=O)O)CN(C(=O)c1cccc(F)c1)C2 [Example 24, (S,E)-2-(tert-butoxy)-2-(6-(1-(8-fluoro-5-methylchroman-6-yl)prop-1-en-2-yl)-2-(3-fluorobenzoyl)-4,7-dimethylisoindolin-5-yl)acetic acid] | 50 µM | 
23 | Cc1ccc(C(=O)N(C)c2c(C)c3c(c(C)c2[C@H](OC(C)(C)C)C(=O)O)CN(C(=O)c2cccc(F)c2)C3)cc1 [Example 12, (S)-2-(tert-butoxy)-2-(6-(N,4-dimethylbenzamido)-2-(3-fluorobenzoyl)-4,7-dimethylisoindolin-5-yl)acetic acid] | 33.9 µM | 
24 | Cc1c2c(c(C)c([C@H](OC(C)(C)C)C(=O)O)c1CC(=O)Nc1ccccc1)CN(C(=O)c1cccc(F)c1)C2 [Example 6, (S)-2-(tert-butoxy)-2-(2-(3-fluorobenzoyl)-4,7-dimethyl-6-(2-oxo-2-(phenylamino)ethyl)isoindolin-5-yl)acetic acid] | 9.63 µM | 
25 | C#Cc1c(C)c2c(c(C)c1[C@H](OC(C)(C)C)C(=O)O)CN(C(=O)c1cccc(F)c1)C2 [Example 2, (S)-2-(tert-butoxy)-2-(6-ethynyl-2-(3-fluorobenzoyl)-4,7-dimethylisoindolin-5-yl)acetic acid] | 3.68 µM | 
26 | Cc1ccc(/C=C/c2c(C)c3c(c(C)c2[C@H](OC(C)(C)C)C(=O)O)CN(C(=O)c2cccc(F)c2)C3)cc1 [Example 19, (S,E)-2-(tert-butoxy)-2-(2-(3-fluorobenzoyl)-4,7-dimethyl-6-(4-methylstyryl)isoindolin-5-yl)acetic acid] | 50 µM | 
27 | Cc1c(/C=C/c2ccccc2)c([C@H](OC(C)(C)C)C(=O)O)c(C)c2c1CN(C(=O)c1cccc(F)c1)C2 [Example 17, (S,E)-2-(tert-butoxy)-2-(2-(3-fluorobenzoyl)-4,7-dimethyl-6-styrylisoindolin-5-yl)acetic acid] | 0.124 µM | 
